# From patent publication US9388147B2 (Receptos, Inc., priority 2009, dated 2016)
# Where two headings read alike, the source gives them in different places.
# Columns and labels:
# peripheral T-cell counts = experiment: Lymphopenia in rats, 3-5 day multiple dose regimen; type: in vivo, rat; details: female rats, oral, 24 h after final dose of a 3-5 day multiple dose regimen
# Description: In rats: Female rats (Simonsen Laboratories, Gilroy Calif.) were housed in an ALAAC accredited facility and the research was approved by the facilities Institutional Animal Care and Use Committee (IACUC). The animals were acclimated to the laboratory for at least 5 days prior to initiation of experiments. Rats (n=3/compound/time-point) were dosed by oral gavage with 1 mg/kg compound formulated in a vehicle consisting of 5% DMS0/5% Tween 20 and 90% 0.1N HCL. Control rats were dosed PO with the vehicle. Whole blood was collected from isoflurane anesthetized rats via the retro-orbital sinus and terminal samples were collected by cardiac puncture into EDTA. Whole blood was incubated with mouse anti-rat CD32 (BD #550271), PE-mouse anti-rat CD45R/B220 (BD #554881), PECy5-mouse anti-rat CD4 (BD #554839), and APC-mouse anti-rat CD8a (eBioscience #17-0084) for 30 minutes on ice. Red blood cells were lysed using BD Pharm Lyse Lysing buffer (#555899) and white blood cells were analyzed with a BD FACSArray. Lymphopenia was expressed as the % of white blood cells that were CD4 or CD8 positive T cells. The overall lymphopenia response over 24 h was estimated by calculating the area under the effect curve (AUEC) using the linear trapezoidal rule.
# (§1) The compounds listed in Table 6 were formulated as suspensions in a vehicle consisting of 0.5% carboxymethyl cellulose (Acros Organics) in purified water (pH adjusted to ˜2.2 with hydrochloric acid). The same formulation was used in the rat lymphopenia and toxicology studies described below. The concentration of each compound in suspension was verified to be within ±10% of the target concentration by HPLC-UV.
# Prior to the conduct of toxicology studies, the effect of three to five daily doses of each compound on peripheral T-cell counts of female rats was determined (see lymphopenia measurements in rats above). In these lymphopenia studies, blood samples were collected onto EDTA at intervals after the final study dose. The collection times were not identical for each study, however, all studies included a sample collected 24 hours after the final dose. The lymphopenia data was used as a biomarker to select equally pharmacologically active doses for the subsequent toxicology study. […] The high dose in the toxicology study represented a ≧20-fold increment over the low dose.
# (§2) The dose producing a 10% increase in lung to body weight ratio was interpolated from a plot of dose versus lung to body weight. The lymphopenia response was measured 24 hours following the final dose of a 3-5 day multiple dose regimen.
# S1P1/EDG1 = S1P1/EDG1 (Homo sapiens, UniProt P21453); experiment: S1P1 CRE-bla CHOK1 reporter assay, inhibition of Forskolin induced cAMP; type: cell-based
# In short: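 Read-out is a FRET β-lactamase substrate (2 h, room temperature) after 4 h, 37 °C compound treatment under 2 μM Forskolin in stable S1P1-transfected CRE-bla CHO-K1 cells. Ten-point curves; non-linear regression gives EC50 for inhibition of Forskolin-stimulated cAMP.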
# S1P4 = target: T1, S1P4 (Homo sapiens, UniProt O95977); experiment: Specificity over other S1P receptors: S1P4-bla TANGO U2OS assay; type: cell-based; details: read-out: S1P4 agonist value (EC50)
# T1 construct: Tango fusion (own knowledge: protease cleavage site plus GAL4-VP16 transcription factor at the receptor's C-terminus); host or cells: U2OS (Tango -bla)
# T1 sequence (O95977 1-384): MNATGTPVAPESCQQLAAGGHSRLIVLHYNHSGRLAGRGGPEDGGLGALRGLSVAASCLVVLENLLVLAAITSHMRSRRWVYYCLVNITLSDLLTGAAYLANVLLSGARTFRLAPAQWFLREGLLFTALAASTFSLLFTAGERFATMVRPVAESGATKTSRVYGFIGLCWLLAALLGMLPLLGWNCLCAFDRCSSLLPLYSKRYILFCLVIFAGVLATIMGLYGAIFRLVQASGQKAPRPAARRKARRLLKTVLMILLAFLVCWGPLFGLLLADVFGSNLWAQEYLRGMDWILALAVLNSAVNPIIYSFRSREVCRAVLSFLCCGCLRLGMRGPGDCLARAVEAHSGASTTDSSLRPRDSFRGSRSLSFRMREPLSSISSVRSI
# Description: (§3) Cells were seeded into 384-well black wall/clear bottom plates at 10^4 cells/well/19.5 μl assay media (DMEM-phenol free, 0.5% charcoal/dextran stripped serum, 2 mM glutamine, 0.1 mM NEAA, 1 mM Na-Pyruvate, 25 mM Hepes) and incubated for 18 hrs at 37° C. in 5% CO2. Dose response curves (10-point) were generated in 10 mM Hepes, 0.1% Pluronic F127, in the presence of Forskolin. Cells were treated with 0.5 μl compound in the presence of 2 μM Forskolin for 4 hrs at 37° C. The FRET-based β-lactamase fluorescent substrate (LiveBLAzer™-FRET B/G Loading Kit CC4-AM; Invitrogen) was prepared according to manufacturer's directions, and incubated with cells for 2 hrs at room temperature. Plates were read at Ex:410/Em:458 and Ex:410/Em:522, and the response ratio determined. Data was analyzed by non-linear regression to determine the EC50 for inhibition of Forskolin induced cAMP.
# (§4) To assess compound specificity on other S1P receptors the following cell lines were used: S1P2 CRE-bla CHOK1, S1P3-Gα15 NFAT-bla HEK293T (Invitrogen), S1P4-bla TANGO U2OS (Invitrogen), S1P5-bla TANGO U2OS (Invitrogen). The same assay set up for S1P1 was used but without Forskolin. S1P4 and S1P5 assays were performed in FreeStyle Expression medium (Invitrogen). S1P5 cells were incubated for 48 hrs in prior to treatment with compound.
# S1P3 = target: T2, S1P3 (Homo sapiens, UniProt Q99500); experiment: Specificity over other S1P receptors: S1P3-Gα15 NFAT-bla HEK293T reporter assay; type: cell-based; details: without Forskolin, read-out: S1P3 agonist value (EC50)
# T2 construct: host or cells: NFAT-bla HEK293T
# Description: as §3, §4
# S1P5 = target: T3, S1P5 (Homo sapiens, UniProt Q9H228); experiment: Specificity over other S1P receptors: S1P5-bla TANGO U2OS assay; type: cell-based; details: read-out: S1P5 agonist value (EC50)
# T3 construct: Tango fusion (own knowledge: protease cleavage site plus GAL4-VP16 transcription factor at the receptor's C-terminus); host or cells: U2OS (Tango -bla)
# Description: as §3, §4
# [1] = Evaluation of therapeutic index in rats: 5 or 14 day toxicology study, lung to body weight ratio; type: in vivo, Sprague-Dawley rat
# Description: All studies were conducted in non-fasted male and female Sprague-Dawely rats (Simonsen Laboratories). Rats were housed in an AAALAC accredited facility and the research was approved by the facilities Institutional Animal Care and Use Committee (IACUC). The animals were acclimated to the laboratory for at least 5 days prior to initiation of experiments.
# as §1
# In the toxicology studies, three male and three female rats per group were assigned to dosing groups using body weight based randomization. A control group in each study received vehicle. All animals were dosed orally by gavage on 5 or 14-consecutive days at a dose volume of 5 mL/kg/day. The animals were observed daily for any manifestations of adverse effect. Twenty-four hours after the final study dose, the rats were anesthetized with isoflurane and a terminal blood sample was taken by intra-cardiac puncture for hematology and clinical chemistry evaluation (IDEXX Laboratories, Sacramento, Calif.). The lungs with trachea were collected, weighed, and then prepared for histology by perfusion with 10% neutral buffered formalin via the trachea. The internally fixed lungs were then preserved in 10% neutral buffered formalin and submitted for histological examination (IDEXX).
# The dose of each compound resulting in a 10% increase in the lung to terminal body weight ratio was estimated for each compound by linear interpolation. The therapeutic index was estimated as the ratio of the dose producing 10% lung weight increase to the dose producing 50% T-Cell depletion.
# as §2
# S1P2 = target: T4, S1P2 (Homo sapiens, UniProt O95136); experiment: Specificity over other S1P receptors: S1P2 CRE-bla CHOK1 reporter assay; type: cell-based; details: S1P2 CRE-bla CHOK1, without Forskolin; read-out: S1P2 agonist value (EC50)
# T4 construct: expressed in transfected cells; host or cells: CRE-bla CHOK1
# Description: as §3, §4
# [2] = system: CD4 or CD8 positive T cells; experiment: Lymphopenia in mice; type: in vivo; details: female C57BL6 mice, 1 mg/kg oral gavage, area under the effect curve over 24 h
# Description: In mice: Female C57BL6 mice (Simonsen Laboratories, Gilroy Calif.) were housed in an ALAAC accredited facility and the research was approved by the facilities Institutional Animal Care and Use Committee (IACUC). The animals were acclimated to the laboratory for at least 5 days prior to initiation of experiments. Mice (n=3/compound/time-point) were dosed by oral gavage with 1 mg/kg compound formulated in a vehicle consisting of 5% DMSO/5% Tween 20 and 90% 0.1N HCl. Control mice were dosed PO with the vehicle. Terminal whole blood samples were collected from isoflurane anesthetized mice by cardiac puncture into EDTA. Whole blood was incubated with rat anti-mouse CD16/CD32 (Mouse BD Fc Block, #553141), PE-Rat anti-mouse CD45R/B220 (BD #553089), APC-Cy7-Rat anti-mouse CD8a (BD #557654), and Alexa Fluor647-Rat anti-mouse CD4 (BD #557681) for 30 min on ice. Red blood cells were lysed using BD Pharm Lyse Lysing buffer (#555899) and white blood cells were analyzed by FACS. Lymphopenia was expressed as the % of white blood cells that were CD4 or CD8 positive T cells. The overall lymphopenia response over 24 h was estimated by calculating the area under the effect curve (AUEC) using the linear trapezoidal rule.
# [3] = S1P1 CRE-bla CHOK1, with Forskolin, read-out: S1P1 agonist value (EC50)
# [4] = agonist activity range, S1P1 CRE-bla CHOK1, 2 μM Forskolin, read-out: S1P1 ACTIVITY
# Chain of S1P1/EDG1 (P21453 whole entry): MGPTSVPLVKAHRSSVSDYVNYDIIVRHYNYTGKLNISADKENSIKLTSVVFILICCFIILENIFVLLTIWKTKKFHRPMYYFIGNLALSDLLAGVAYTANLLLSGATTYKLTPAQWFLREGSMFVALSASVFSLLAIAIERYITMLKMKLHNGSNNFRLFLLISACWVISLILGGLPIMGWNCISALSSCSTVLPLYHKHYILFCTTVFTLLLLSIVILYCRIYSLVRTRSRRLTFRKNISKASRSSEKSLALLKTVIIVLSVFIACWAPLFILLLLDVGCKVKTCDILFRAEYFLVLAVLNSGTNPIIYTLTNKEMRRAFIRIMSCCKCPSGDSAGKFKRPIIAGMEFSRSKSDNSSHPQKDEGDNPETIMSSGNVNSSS
# T2 sequence (Q99500 whole entry): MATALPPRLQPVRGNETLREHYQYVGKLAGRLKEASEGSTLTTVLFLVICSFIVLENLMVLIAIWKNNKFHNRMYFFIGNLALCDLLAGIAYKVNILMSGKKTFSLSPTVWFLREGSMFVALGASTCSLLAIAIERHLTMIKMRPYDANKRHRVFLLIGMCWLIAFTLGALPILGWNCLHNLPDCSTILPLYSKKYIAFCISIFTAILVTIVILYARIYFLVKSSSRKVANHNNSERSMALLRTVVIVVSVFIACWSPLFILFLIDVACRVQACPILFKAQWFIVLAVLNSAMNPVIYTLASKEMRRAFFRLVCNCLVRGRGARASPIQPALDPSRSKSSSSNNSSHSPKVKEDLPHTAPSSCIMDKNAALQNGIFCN
# T3 sequence (Q9H228 whole entry, the tested form may be a part): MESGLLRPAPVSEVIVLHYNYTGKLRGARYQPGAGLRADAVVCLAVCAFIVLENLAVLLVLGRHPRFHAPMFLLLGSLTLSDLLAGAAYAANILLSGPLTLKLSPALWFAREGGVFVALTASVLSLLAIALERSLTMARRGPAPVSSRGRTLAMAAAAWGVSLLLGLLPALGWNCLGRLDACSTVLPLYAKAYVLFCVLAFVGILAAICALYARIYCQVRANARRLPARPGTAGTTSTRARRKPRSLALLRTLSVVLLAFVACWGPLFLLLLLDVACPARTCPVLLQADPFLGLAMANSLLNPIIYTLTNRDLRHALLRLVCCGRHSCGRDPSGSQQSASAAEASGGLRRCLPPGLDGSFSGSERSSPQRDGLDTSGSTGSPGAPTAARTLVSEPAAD
# T4 sequence (O95136 whole entry, species assumed): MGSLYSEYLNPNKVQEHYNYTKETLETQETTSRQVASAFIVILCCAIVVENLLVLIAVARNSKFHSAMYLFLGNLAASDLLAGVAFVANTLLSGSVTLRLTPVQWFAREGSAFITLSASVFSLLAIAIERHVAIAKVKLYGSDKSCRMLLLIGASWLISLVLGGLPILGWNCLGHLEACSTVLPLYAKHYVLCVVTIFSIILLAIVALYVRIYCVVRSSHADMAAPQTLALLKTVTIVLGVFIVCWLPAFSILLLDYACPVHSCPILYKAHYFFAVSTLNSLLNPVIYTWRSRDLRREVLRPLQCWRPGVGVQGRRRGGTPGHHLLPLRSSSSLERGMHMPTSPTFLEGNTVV
Compound,Dose Producing 50% lymphopenia (peripheral T-cell counts) [mg/kg],EC50 (S1P1/EDG1; [3]) [nM],EC50 (S1P1/EDG1; [4]) [nM],EC50 (S1P4) [nM],EC50 (S1P3) [nM],EC50 (S1P5) [nM],"Dose Resulting in 10% increase in lung weight ([1]; rats, oral, 5 or 14 consecutive days, interpolated from dose versus lung to body weight) [mg/kg]","TI 5 days ([1]; therapeutic index: dose producing 10% lung weight increase / dose producing 50% T-cell depletion, 5 day toxicology study in rats)",EC50 (S1P2) [nM],Mouse Lymphopenia (AUEC) [2]
"CC(C)Oc1ccc(-c2nc(-c3cccc4c3CC[C@H]4NS(=O)(=O)CCO)no2)cc1C#N [Compound 186, (R)-N-(4-(5-(3 cyano-4-isopropoxyphenyl)-1,2,4-oxadiazol-3-yl)-2,3-dihydro-1H-inden-1-yl)-2-hydroxyethanesulfonamide]",0.07,0.05,0.05 to 0.5,1210,> 10000,32.3,1.1,16,1570,–
"CCOc1ccc(-c2nc(-c3cccc4c3CCC4O)no2)cc1OCC (racemic) [Compound 254, (+/−)-4-(5-(3,4,diethoxyphenyl)-1,2,4-oxadiazol-3-yl)-2,3-dihydro-1H-inden-1-ol, reference compound]",–,0.16,0.05 to 0.5,5500,5270,56.8,–,–,5500,84
